We go through eight compounds from patent US7183319B2 (priority 2000, dated 2007).

The structures appear in SMILES notation. Entries after “also recorded” stand apart in the source; their conditions may differ.

One data set has as its system mushroom tyrosinase. The format is biochemical. The conditions noted are these: for oxidation rate (Rmax) by tyrosinase: pH 7.4.
The conditions of data set [1]: bovine.
The next data set can be described thus: in vitro. The conditions noted are these: bovine, serum.

On to `COc1cccc2c1C(=O)c1c(O)c3c(c(O)c1C2=O)C[C@@](O)(C(C)=O)C[C@@H]3OC1CC(NC(=O)NCCc2ccc(O)cc2)C(O)C(C)O1` (stereo partly drawn) [1.1.5], for which the “quality as tyrosinase substrate / oxidation rate in words” value in the data set with mushroom tyrosinase is “poor substrate”. In data set [1], the “% decomposition over time, 1 hr” value amounted to 0%; the “% decomposition over time, 2 hrs” value is 0%; the “% decomposition over time, 3 hrs” value was found to be 0%; the “% decomposition over time, 4 hrs” value came to 0%. In addition, in data set [1], the “% decomposition over time, 6 hrs” value is 0%; the “% decomposition over time, 12 hrs” value worked out at 0%; the “% decomposition over time, 24 hrs” value was found to be 0%; the “% decomposition over time, 48 hrs” value stood at 0%.

For `O=C(NCCc1ccc(O)cc1)Oc1ccc(N(CCCl)CCCl)cc1` [prodrug 9, {2′-(4″-Hydroxyphenyl)ethyl} carbamic acid p-(bis-2-chloroethylamino)phenyl ster], the “quality as tyrosinase substrate / oxidation rate in words” value in the data set with mushroom tyrosinase is reported as “good substrates”.

With `O=C(NCCSc1ccc(O)cc1)Oc1ccc(N(CCCl)CCCl)cc1` [prodrug 22], the “oxidation rate (Rmax) by tyrosinase” value with mushroom tyrosinase is 7.5 nmol/min.

`O=C(NCCc1ccc(O)c(O)c1)Oc1ccc(N(CCCl)CCCl)cc1` [prodrug 10, {2′-(3″,4″-Dihydroxyphenyl)-ethyl} carbamic acid p-(bis-2-chloroethylamino) phenyl ester]: the “quality as tyrosinase substrate / oxidation rate in words” value in the data set on mushroom tyrosinase was “good substrates”.

As for `COC(=O)[C@@H](Cc1ccc(O)c(O)c1)NC(=O)Oc1ccc(N(CCCl)CCCl)cc1` [prodrug 16, (R)-[1′-Amino-2′-(3,4′-hydroxyphenyl)ethanonic acid methyl ester]-carbamic acid p-(bis-2-chloroethylamino) phenyl ester], the “oxidation by tyrosinase within incubation period” value with mushroom tyrosinase was “not oxidized by tryorinase; also recorded: not oxidised by tyrosinase”.

Consider `O=C(NCCc1ccc(O)cc1)Oc1ccc(N(CCCl)CCCl)cc1` [prodrug 21, {2′-(4″-Hydroxyphenyl)ethylamine) carbamic acid p-(bis-2-chloroethylamino) phenyl ester], for which the “oxidation rate (Rmax) by tyrosinase” value with mushroom tyrosinase was 7.5 nmol/min.

Usually half-life stands for the time needed for the level to fall by half in the phase considered. On to `O=C(NCCc1ccc(O)cc1)Oc1ccc(N(CCCl)CCCl)cc1` [1.1.1], for which the half-life in “in vitro” was roughly 2.5 h. Moreover, in data set [1], the “% decomposition over time, 1 hr” value was 7%; the “% decomposition over time, 2 hrs” value is 44%; the “% decomposition over time, 3 hrs” value was 61%; the “% decomposition over time, 4 hrs” value turned out to be 74%. Also, the “% decomposition over time, 6 hrs” value in data set [1] is listed as 100%.

With `COC(=O)[C@H](Cc1ccc(O)cc1)NC(=S)Oc1ccc(N(CCCl)CCCl)cc1` [2.2.1], the half-life in “in vitro” is roughly 1.5 h. For the same compound, in data set [1], the “% decomposition over time, 1 hr” value was 52%; the “% decomposition over time, 2 hrs” value worked out at 92%; the “% decomposition over time, 3 hrs” value came out at 100%.
